In article PMC12567141, “Design, Synthesis and Biological Evaluation of Pyrazolopyrimidine Derivatives as Aryl Hydrocarbon Receptor Antagonists for Colorectal Cancer Immunotherapy” (Pharmaceutics, 2025):
Several values for one entry are separate records, joined by “and”; a condition that tells them apart may be missing. Equal values may be shown once. Read-outs that look alike come from different tables or passages of the source.

Experiments:
AhR [1] = molecular target: T1, AhR (Danio rerio, UniProt Q9YGV3); parameters: method as in PMID 34223158, PMID 10913616, PMID 31358358; conditions: reported AhR antagonists, Figure 2; cited from earlier work
T1 sequence (Q9YGV3 1-1027): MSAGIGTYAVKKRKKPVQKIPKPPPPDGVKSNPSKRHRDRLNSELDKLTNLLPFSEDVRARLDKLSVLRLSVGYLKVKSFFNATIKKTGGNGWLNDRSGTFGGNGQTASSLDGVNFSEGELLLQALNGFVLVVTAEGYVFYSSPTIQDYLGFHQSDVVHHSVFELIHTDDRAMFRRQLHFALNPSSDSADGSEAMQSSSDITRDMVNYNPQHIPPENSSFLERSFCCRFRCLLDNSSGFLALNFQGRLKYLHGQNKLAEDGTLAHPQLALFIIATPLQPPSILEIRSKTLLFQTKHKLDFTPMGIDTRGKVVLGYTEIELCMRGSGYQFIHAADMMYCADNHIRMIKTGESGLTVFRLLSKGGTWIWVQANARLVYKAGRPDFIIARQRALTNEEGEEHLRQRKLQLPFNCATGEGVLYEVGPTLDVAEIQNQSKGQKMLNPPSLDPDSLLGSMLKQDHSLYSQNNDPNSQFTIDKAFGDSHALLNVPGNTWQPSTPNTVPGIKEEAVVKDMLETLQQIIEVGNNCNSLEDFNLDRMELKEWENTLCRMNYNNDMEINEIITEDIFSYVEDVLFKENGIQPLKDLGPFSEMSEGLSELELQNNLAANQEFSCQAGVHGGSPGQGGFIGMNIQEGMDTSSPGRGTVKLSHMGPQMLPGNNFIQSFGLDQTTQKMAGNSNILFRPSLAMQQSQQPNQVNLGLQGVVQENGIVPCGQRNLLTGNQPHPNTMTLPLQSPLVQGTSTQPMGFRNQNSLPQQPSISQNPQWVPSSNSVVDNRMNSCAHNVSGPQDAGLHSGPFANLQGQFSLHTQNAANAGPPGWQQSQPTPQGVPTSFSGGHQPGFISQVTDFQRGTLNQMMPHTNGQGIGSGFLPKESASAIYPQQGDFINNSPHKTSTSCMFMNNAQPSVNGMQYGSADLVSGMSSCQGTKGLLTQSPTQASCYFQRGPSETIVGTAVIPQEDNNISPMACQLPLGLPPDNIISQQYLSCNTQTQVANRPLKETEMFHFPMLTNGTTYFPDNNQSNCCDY
T1 sequence (Q64FF9 1-503 partner): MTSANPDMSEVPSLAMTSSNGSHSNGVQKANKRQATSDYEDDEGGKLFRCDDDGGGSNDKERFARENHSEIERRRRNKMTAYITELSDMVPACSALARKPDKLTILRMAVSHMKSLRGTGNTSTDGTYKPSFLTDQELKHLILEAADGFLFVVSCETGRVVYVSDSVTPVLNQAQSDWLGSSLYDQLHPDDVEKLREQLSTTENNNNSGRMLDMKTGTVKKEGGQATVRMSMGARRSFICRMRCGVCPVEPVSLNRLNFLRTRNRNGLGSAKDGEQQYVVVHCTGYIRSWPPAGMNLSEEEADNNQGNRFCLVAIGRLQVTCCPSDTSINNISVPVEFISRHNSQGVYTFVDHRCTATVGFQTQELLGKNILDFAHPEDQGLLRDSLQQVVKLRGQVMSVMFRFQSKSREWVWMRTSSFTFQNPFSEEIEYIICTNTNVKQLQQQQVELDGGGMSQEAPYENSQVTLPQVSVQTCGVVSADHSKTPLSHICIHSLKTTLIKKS

AhR [2] = assay: AhR antagonist screening using Tg(cyp1a:egfp) zebrafish; assay type: in vivo; parameters: key to AhR Antagonist Activity at 100 nM: - no inhibition; + weak; ++ mild; +++ moderate; ++++ high; +++++ very high; conditions: for AhR Antagonist Activity at 100 nM: extent of GFP reduction in Tg(cyp1a:egfp) zebrafish compared to the TCDD (2 nM) control, 48 h; for AhR antagonistic activity in zebrafish, in words: Tg(cyp1a:egfp) zebrafish, EGFP readout
Procedure: At 30 hpf, Tg(cyp1a:egfp) embryos were placed in a 2-mL screw-capped glass vial with five embryos per vial. Each vial contained 1 mL of E3 media (5 mM NaCl, 0.17 mM KCl, 0.33 mM CaCl2·2H2O and 0.4 mM MgCl2·6H2O, pH 7.2) and supplemented with 2 nM TCDD (1746-01-6; AccuStandard Inc., New Haven, NH, USA) dissolved in DMSO. The compounds were subsequently diluted and individually introduced into the vials, achieving a final concentration of 0.1% DMSO. The embryos were then incubated for 48 h and then embryonic EGFP expression was evaluated using a fluorescent stereomicroscope (SteREO Discovery V8; Zeiss, Oberkochen, BW, Germany). As a positive control, StemRegenin1 (72342, […] Technologies, Vancouver, BC, Canada) was employed.
To evaluate AhR antagonistic activity, we conducted an AhR antagonist assay using transgenic zebrafish. Zebrafish have garnered significant attention as model organisms for drug discovery because they share metabolic pathways with mammals. […] Therefore, we synthesized more meta substituted phenyl derivatives. […] We also synthesized heteroaromatic derivatives including pyrimidine and pyridine at 5-position; however, their activities were decreased.

MC38 tumor = assay: In vivo therapy, MC38 syngeneic model; parameters: species or system mice; conditions: MC38 model, comparison of 7k and 3′,4′-dimethoxyflavone, 10 mg/kg oral once a day, 18 days
Procedure: In vivo experiments were conducted using 6-week-old male immunocompetent BALB/c and C57BL/6 with 18–20 g body weight (Orient Bio Inc., Seungnam, Republic of Korea). All animal experimental procedures were maintained and used in accordance with the Guidelines for the Care and Use of Laboratory Animals of the Institute of Laboratory Animal Center, Daegu-Gyeongbuk Medical Innovation Foundation (K-MEDI hub). The animal studies were conducted after approval by the institutional reviewer board on the Ethics of Animal Experiments of the Daegu-Gyeongbuk Medical Innovation Foundation (approval number: KMEDI-24041103-01).
Study 1: Antitumor activity of 7k alone in mice with either CT26 syngeneic model or MC38 syngeneic model. Mice were subcutaneously challenged with 5 × 10^5 either MC38 or CT26 cells. […]
The 7k was dissolved in solution including 5% DMSO, 55% DW, and 40% PEG. Tumor size was measured with a caliper at the indicated time points, and tumor volume (mm^3) was calculated using the following formula, tumor volume (mm^3) = d2 × D/2, where d and D are the shortest and longest diameters in mm, respectively.

AhR [3] = molecular target: T1, AhR; assay: IC50 determination, Cyp1a dual luciferase reporter assay in transfected COS-7 cells; assay type: cell-based; conditions: AhR2/ARNT-1c/Cyp1a-luciferase, TCDD 10 nM
Procedure: All experiments were conducted as described previously unless stated otherwise. COS-7 cells were seeded onto 24-well plate until approximately 65% confluency. The cells were transfected with ARNT-1c expression plasmid (50 ng), AhR2 expression plasmid (5 ng), Cyp1a-firefly luciferase reporter plasmid (20 ng) and pRL-TK Renilla luciferase plasmid (2 ng) using Lipofectamine 3000 (Thermo Fisher Scientific) according to the manufacturer’s protocol. The pEGFP-C1 plasmid (Clontech, Tempe, AZ, USA) was used to assess the transfection efficiency. At 5 h post transfection, serially diluted test compounds at indicated concentration were added to the cells. Simultaneously, TCDD (10 nM) or indicated compounds with the highest concentration were added in the control wells. At 1 h post compound treatment, TCDD (10 nM) was added to all wells except the control wells. At 18 h post TCDD treatment, the medium was removed, and the cells washed with Dulbecco’s phosphate buffered saline (DPBS) and harvested using 1x Passive Lysis Buffer (Promega, Madison, WI, USA). The dual luciferase assay was carried out using a Dual-Luciferase Reporter Assay System (Promega, Madison, WI, USA) and an Orion L Microplate Luminometer (Titertek Berthold, Pforzheim, BW, Germany) as per manufacturer’s protocol. The relative light unit (RLU) values were normalized and expressed as toxic induced ratio (TIR). IC50 was determined using Prism 9.0 (GraphPad Software).

colorectal cancer cells = assay: Cell viability assay (CCK-8), colorectal cancer cells; assay type: cell-based; conditions: 24 h
Procedure: (§1) Chinese hamster ovary CHO cells, mouse fibroblast L929 cells, normal colon CCD18-Co cells, monkey kidney fibroblast COS-7 cells, colorectal cancer cells including HCT-116, RKO, SW480, SW620, CT26, and MC38 cells were purchased from ATCC (American Type Culture Collection). CHO, L929, Cos-7, and all cancer cells were maintained in RPMI 1640 or DMEM supplemented with 10% FBS (Gibco FBS; Thermo Fisher Scientific, Hanover Park, IL, USA) and 1% streptomycin/penicillin. CCD18-Co cells were cultured in high-glucose Dulbecco modified Eagle medium containing 10% FBS and 1% streptomycin/penicillin. All cells were grown in 5% CO2 at 37 °C. Mycoplasma testing was regularly performed every month using the BioMycoX Mycoplasma PCR Detection Kit (CellSafe, Yongin, Republic of Korea).
(§2) Cell viability was analyzed using a Cell Counting Kit-8 (Dojindo molecular technologies, Rockville, MD, USA). Cells were seeded in 96-well plates and treated with different concentrations of 7k. At the indicated time points, CCK-8 (10 μL/well) reagents were added to the cells, followed by further incubation at 37 °C for 90 min. The absorbance at 450 nm was measured using a plate reader (BioTek instruments, Winooski, VT, USA).

[4] = tested on: normal cells (CHO, L929, CCD-18Co); assay: Cell viability assay (CCK-8), normal cells; assay type: cell-based; conditions: 24 h, 7k: CHO, SR-1: CCD-18Co
Procedure: as §1, §2

SMILES | AhR Antagonist Activity at 100 nM (AhR [2]) | AhR antagonistic activity in zebrafish, in words (AhR [2]) | further results
C[C@@H](CO)NC(=O)c1cc(-c2ccc(Cl)cc2)nn(-c2cnn(C)c2)c1=O [BAY 2416964] |  |  | IC50 (AhR [1]): 341 nM
CCn1cc2nc(-c3cccc(C#N)c3)nc(NCCc3c[nH]c4ccccc34)c2n1 [Compound 7g] | +++ | lower activity than that of the isopropyl compound | 
COc1ccc(-c2cc(=O)c3ccccc3o2)cc1OC [3′,4′-dimethoxyflavone, reference compound] |  |  | tumor growth inhibition (TGI) (MC38 tumor): 37%
CC(C)n1cc2nc(-c3cccc(C#N)c3)nc(NCCc3c[nH]c4ccccc34)c2n1 [Compound 7c] | ++++ |  | IC50 (AhR [3]): 171 nM
CC(C)n1cc2nc(-c3cccc(F)c3)nc(NCCc3c[nH]c4ccccc34)c2n1 [Compound 7j] | ++++ |  | IC50 (AhR [3]): 412 nM and 413 nM
CC(C)c1cnn2c(N[C@H]3CCc4[nH]c5ccccc5c4C3)nc(-c3cncc(F)c3)nc12 [IK-175] |  |  | IC50 (AhR [1]): < 500 nM
C[C@@H](CO)NC(=O)c1cc(-c2ccc(Cl)cc2)nn(-c2cccc(F)c2)c1=O [BAY-128] |  |  | IC50 (AhR [1]): 39.9 nM
Cc1ccccc1-c1cc2cc(NC(=O)c3ccnn3C)ccc2[nH]1 [PX-A24590] |  |  | IC50 (AhR [1]): 60 nM
CC(C)n1cc2nc(-c3cccc(OC(F)(F)F)c3)nc(NCCc3c[nH]c4ccccc34)c2n1 [Compound 7l] | +++ | decreased activities | IC50 (AhR [3]): 301 nM
CC(C)n1cc2nc(-c3ccc(C#N)cc3)nc(NCCc3c[nH]c4ccccc34)c2n1 [Compound 7b] | ++ | better activity compared with those of the hit compound | 
CC(C)n1cnc2c(NCCc3ccc(O)cc3)nc(-c3csc4ccccc34)nc21 [SR-1, StemRegenin 1, reference compound] | +++ |  | IC50 (AhR [3]): 198 nM; cell proliferation / viability of colorectal cancer cells (colorectal cancer cells): reduced the viability of colorectal cancer cells; cell viability of normal cells [4]: little effect; IC50 (AhR [1]): 127 nM
CCCCn1cc2nc(-c3cccc(C#N)c3)nc(NCCc3c[nH]c4ccccc34)c2n1 [Compound 7h] | +++ | lower activity than that of the isopropyl compound | 
CC(C)n1cc2nc(-c3cccc(C#N)c3)nc(NCCc3c[nH]c4ccc(O)cc34)c2n1 [Compound 7i] | - | decreased AhR inhibition | 

Continued, in another order:

AhR Antagonist Activity at 100 nM (AhR [2]) | AhR antagonistic activity in zebrafish, in words (AhR [2]) | SMILES | further results
+ |  | CC(C)n1cc2nc(-c3ccccc3)nc(NCCc3c[nH]c4ccccc34)c2n1 [Compound 7a] | 
- | didn’t show AhR inhibition | CC(C)n1cc2nc(-c3cccc(N)c3)nc(NCCc3c[nH]c4ccccc34)c2n1 [Compound 7f] | 
- | didn’t show AhR inhibition | CC(=O)c1cccc(-c2nc(NCCc3c[nH]c4ccccc34)c3nn(C(C)C)cc3n2)c1 [Compound 7d] | 
- | didn’t show AhR inhibition | CC(C)n1cc2nc(-c3cccc(C(F)(F)F)c3)nc(NCCc3c[nH]c4ccccc34)c2n1 [Compound 7e] | 
- | decreased activities | CC(C)n1cc2nc(-c3cccc(C(=O)OC(C)(C)C)c3)nc(NCCc3c[nH]c4ccccc34)c2n1 [Compound 7m] | 
